Data: patent publication US20100160454A1, “ANTIMICROBIAL AGENTS, COMPOSITIONS AND PRODUCTS CONTAINING THE SAME, AND METHODS OF USING THE COMPOSITIONS AND PRODUCTS” (Eastman Chemical Company, priority 2008, published 2010)

Assays:
Assay in all cases: Microbiological challenge testing in BPW broth, graded subculture counts
Assay type in all cases: cell-based
[1] = system: Staphylococcus epidermidis ATCC 12228
Outline: (§1)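 Bacteria were grown in TSB with 1% dextrose at 35 °C ± 2 °C for at least 96 h, then added to BPW containing 1% dextrose plus test material to give 10^5 to 10^6 CFU/mL at time zero. Broth-alone controls were run in triplicate. Counts were made by spread plating on PCA.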

[2] = system: Burkholderia cepacia Wild type; settings: B. cepacia
Outline: as §1

[3] = system: Staphylococcus aureus ATCC 25923; settings: S. aureus
Outline: as §1

[4] = system: Escherichia coli ATCC 25922; settings: E. Coli
Outline: as §1

Aeromonas sp. Wild type = system: Aeromonas sp. Wild type
Outline: as §1

[5] = system: Proteus vulgaris Wild type
Outline: as §1

With CC(O)CO (stereo not drawn) [PG, propylene glycol] the “S. epidermidis growth grade, 3 day” value ([1]; 0.5% weight/volume) was 5 (More than 10,000 colonies estimated (thus more than 100,000 CFU/mL)), the “S. epidermidis growth grade, 13 day” value ([1]; 0.5% weight/volume) was 5 (More than 10,000 colonies estimated (thus more than 100,000 CFU/mL)) and the “S. epidermidis growth grade, 30 day” value ([1]; 0.5% weight/volume) was 5 (More than 10,000 colonies estimated (thus more than 100,000 CFU/mL)). For the same compound, the “S. epidermidis growth grade, 3 day” value ([1]; 1.25% weight/volume) was 4 (1000 to 10,000 colonies countable (thus 10,000 CFU/mL to 100,000 CFU/mL)), the “S. epidermidis growth grade, 13 day” value ([1]; 1.25% weight/volume) was 4 (1000 to 10,000 colonies countable (thus 10,000 CFU/mL to 100,000 CFU/mL)) and the “S. epidermidis growth grade, 30 day” value ([1]; 1.25% weight/volume) was 4 (1000 to 10,000 colonies countable (thus 10,000 CFU/mL to 100,000 CFU/mL)). The “S. epidermidis growth grade, 3 day” value ([1]; 2.5% weight/volume) was 4 (1000 to 10,000 colonies countable (thus 10,000 CFU/mL to 100,000 CFU/mL)), the “S. epidermidis growth grade, 13 day” value ([1]; 2.5% weight/volume) was 4 (1000 to 10,000 colonies countable (thus 10,000 CFU/mL to 100,000 CFU/mL)) and the “S. epidermidis growth grade, 30 day” value ([1]; 2.5% weight/volume) was 4 (1000 to 10,000 colonies countable (thus 10,000 CFU/mL to 100,000 CFU/mL)). For the same compound, the “S. epidermidis growth grade, 3 day” value ([1]; 5.0% weight/volume) was 4 (1000 to 10,000 colonies countable (thus 10,000 CFU/mL to 100,000 CFU/mL)), the “S. epidermidis growth grade, 13 day” value ([1]; 5.0% weight/volume) was 4 (1000 to 10,000 colonies countable (thus 10,000 CFU/mL to 100,000 CFU/mL)) and the “S. epidermidis growth grade, 30 day” value ([1]; 5.0% weight/volume) was 4 (1000 to 10,000 colonies countable (thus 10,000 CFU/mL to 100,000 CFU/mL)). The Grade ([2]; 0.5% (wt/vol), 3 day) was 5 (More than 10,000 colonies estimated (thus more than 100,000 CFU/mL)), the Grade ([2]; 0.5% (wt/vol), 14 day) was 5 (More than 10,000 colonies estimated (thus more than 100,000 CFU/mL)) and the Grade ([2]; 0.5% (wt/vol), 30 day) was 5 (More than 10,000 colonies estimated (thus more than 100,000 CFU/mL)). The Grade ([2]; 1.25% (wt/vol), 3 day) was 5 (More than 10,000 colonies estimated (thus more than 100,000 CFU/mL)), the Grade ([2]; 1.25% (wt/vol), 14 day) was 5 (More than 10,000 colonies estimated (thus more than 100,000 CFU/mL)) and the Grade ([2]; 1.25% (wt/vol), 30 day) was 5 (More than 10,000 colonies estimated (thus more than 100,000 CFU/mL)). For the same compound, the Grade ([2]; 2.5% (wt/vol), 3 day) was 5 (More than 10,000 colonies estimated (thus more than 100,000 CFU/mL)), the Grade ([2]; 2.5% (wt/vol), 14 day) was 5 (More than 10,000 colonies estimated (thus more than 100,000 CFU/mL)) and the Grade ([2]; 2.5% (wt/vol), 30 day) was 5 (More than 10,000 colonies estimated (thus more than 100,000 CFU/mL)). The Grade ([2]; 5.0% (wt/vol), 3 day) was 4 (1000 to 10,000 colonies countable (thus 10,000 CFU/mL to 100,000 CFU/mL)), the Grade ([2]; 5.0% (wt/vol), 14 day) was 4 (1000 to 10,000 colonies countable (thus 10,000 CFU/mL to 100,000 CFU/mL)) and the Grade ([2]; 5.0% (wt/vol), 30 day) was 4 (1000 to 10,000 colonies countable (thus 10,000 CFU/mL to 100,000 CFU/mL)). For the same compound, the Grade ([3]; 0.5% (wt/vol), 3 day) was 5 (More than 10,000 colonies estimated (thus more than 100,000 CFU/mL)), the Grade ([3]; 0.5% (wt/vol), 14 day) was 4 (1000 to 10,000 colonies countable (thus 10,000 CFU/mL to 100,000 CFU/mL)) and the Grade ([3]; 0.5% (wt/vol), 30 day) was 4 (1000 to 10,000 colonies countable (thus 10,000 CFU/mL to 100,000 CFU/mL)). The Grade ([3]; 1.25% (wt/vol), 3 day) was 4 (1000 to 10,000 colonies countable (thus 10,000 CFU/mL to 100,000 CFU/mL)), the Grade ([3]; 1.25% (wt/vol), 14 day) was 4 (1000 to 10,000 colonies countable (thus 10,000 CFU/mL to 100,000 CFU/mL)) and the Grade ([3]; 1.25% (wt/vol), 30 day) was 4 (1000 to 10,000 colonies countable (thus 10,000 CFU/mL to 100,000 CFU/mL)). The Grade ([3]; 2.5% (wt/vol), 3 day) was 4 (1000 to 10,000 colonies countable (thus 10,000 CFU/mL to 100,000 CFU/mL)), the Grade ([3]; 2.5% (wt/vol), 14 day) was 4 (1000 to 10,000 colonies countable (thus 10,000 CFU/mL to 100,000 CFU/mL)) and the Grade ([3]; 2.5% (wt/vol), 30 day) was 4 (1000 to 10,000 colonies countable (thus 10,000 CFU/mL to 100,000 CFU/mL)). For the same compound, the Grade ([3]; 5.0% (wt/vol), 3 day) was 4 (1000 to 10,000 colonies countable (thus 10,000 CFU/mL to 100,000 CFU/mL)), the Grade ([3]; 5.0% (wt/vol), 14 day) was 4 (1000 to 10,000 colonies countable (thus 10,000 CFU/mL to 100,000 CFU/mL)) and the Grade ([3]; 5.0% (wt/vol), 30 day) was 4 (1000 to 10,000 colonies countable (thus 10,000 CFU/mL to 100,000 CFU/mL)). For the same compound, the Grade ([4]; 0.5% (wt/vol), 3 day) was 5 (More than 10,000 colonies estimated (thus more than 100,000 CFU/mL)), the Grade ([4]; 0.5% (wt/vol), 14 day) was 5 (More than 10,000 colonies estimated (thus more than 100,000 CFU/mL)) and the Grade ([4]; 0.5% (wt/vol), 30 day) was 5 (More than 10,000 colonies estimated (thus more than 100,000 CFU/mL)). The Grade ([4]; 1.25% (wt/vol), 3 day) was 5 (More than 10,000 colonies estimated (thus more than 100,000 CFU/mL)), the Grade ([4]; 1.25% (wt/vol), 14 day) was 4 (1000 to 10,000 colonies countable (thus 10,000 CFU/mL to 100,000 CFU/mL)) and the Grade ([4]; 1.25% (wt/vol), 30 day) was 4 (1000 to 10,000 colonies countable (thus 10,000 CFU/mL to 100,000 CFU/mL)). For the same compound, the Grade ([4]; 2.5% (wt/vol), 3 day) was 5 (More than 10,000 colonies estimated (thus more than 100,000 CFU/mL)), the Grade ([4]; 2.5% (wt/vol), 14 day) was 4 (1000 to 10,000 colonies countable (thus 10,000 CFU/mL to 100,000 CFU/mL)) and the Grade ([4]; 2.5% (wt/vol), 30 day) was 4 (1000 to 10,000 colonies countable (thus 10,000 CFU/mL to 100,000 CFU/mL)). The Grade ([4]; 5.0% (wt/vol), 3 day) was 4 (1000 to 10,000 colonies countable (thus 10,000 CFU/mL to 100,000 CFU/mL)), the Grade ([4]; 5.0% (wt/vol), 14 day) was 4 (1000 to 10,000 colonies countable (thus 10,000 CFU/mL to 100,000 CFU/mL)) and the Grade ([4]; 5.0% (wt/vol), 30 day) was 4 (1000 to 10,000 colonies countable (thus 10,000 CFU/mL to 100,000 CFU/mL)). The “Aeromonas sp growth grade, 3 day” value (Aeromonas sp. Wild type; 0.5% weight/volume) was 5 (More than 10,000 colonies estimated (thus more than 100,000 CFU/mL)), the “Aeromonas sp growth grade, 14 day” value (Aeromonas sp. Wild type; 0.5% weight/volume) was 5 (More than 10,000 colonies estimated (thus more than 100,000 CFU/mL)) and the “Aeromonas sp growth grade, 30 day” value (Aeromonas sp. Wild type; 0.5% weight/volume) was 5 (More than 10,000 colonies estimated (thus more than 100,000 CFU/mL)). The “Aeromonas sp growth grade, 3 day” value (Aeromonas sp. Wild type; 1.25% weight/volume) was 5 (More than 10,000 colonies estimated (thus more than 100,000 CFU/mL)), the “Aeromonas sp growth grade, 14 day” value (Aeromonas sp. Wild type; 1.25% weight/volume) was 5 (More than 10,000 colonies estimated (thus more than 100,000 CFU/mL)) and the “Aeromonas sp growth grade, 30 day” value (Aeromonas sp. Wild type; 1.25% weight/volume) was 5 (More than 10,000 colonies estimated (thus more than 100,000 CFU/mL)). The “Aeromonas sp growth grade, 3 day” value (Aeromonas sp. Wild type; 2.5% weight/volume) was 5 (More than 10,000 colonies estimated (thus more than 100,000 CFU/mL)), the “Aeromonas sp growth grade, 14 day” value (Aeromonas sp. Wild type; 2.5% weight/volume) was 5 (More than 10,000 colonies estimated (thus more than 100,000 CFU/mL)) and the “Aeromonas sp growth grade, 30 day” value (Aeromonas sp. Wild type; 2.5% weight/volume) was 5 (More than 10,000 colonies estimated (thus more than 100,000 CFU/mL)). The “Aeromonas sp growth grade, 3 day” value (Aeromonas sp. Wild type; 5.0% weight/volume) was 5 (More than 10,000 colonies estimated (thus more than 100,000 CFU/mL)), the “Aeromonas sp growth grade, 14 day” value (Aeromonas sp. Wild type; 5.0% weight/volume) was 4 (1000 to 10,000 colonies countable (thus 10,000 CFU/mL to 100,000 CFU/mL)) and the “Aeromonas sp growth grade, 30 day” value (Aeromonas sp. Wild type; 5.0% weight/volume) was 4 (1000 to 10,000 colonies countable (thus 10,000 CFU/mL to 100,000 CFU/mL)). The “P. vulgaris growth grade, 3 day” value ([5]; 0.5% weight/volume) was 4 (1000 to 10,000 colonies countable (thus 10,000 CFU/mL to 100,000 CFU/mL)), the “P. vulgaris growth grade, 13 day” value ([5]; 0.5% weight/volume) was 4 (1000 to 10,000 colonies countable (thus 10,000 CFU/mL to 100,000 CFU/mL)) and the “P. vulgaris growth grade, 30 day” value ([5]; 0.5% weight/volume) was 4 (1000 to 10,000 colonies countable (thus 10,000 CFU/mL to 100,000 CFU/mL)). The “P. vulgaris growth grade, 3 day” value ([5]; 1.25% weight/volume) was 4 (1000 to 10,000 colonies countable (thus 10,000 CFU/mL to 100,000 CFU/mL)), the “P. vulgaris growth grade, 13 day” value ([5]; 1.25% weight/volume) was 4 (1000 to 10,000 colonies countable (thus 10,000 CFU/mL to 100,000 CFU/mL)) and the “P. vulgaris growth grade, 30 day” value ([5]; 1.25% weight/volume) was 4 (1000 to 10,000 colonies countable (thus 10,000 CFU/mL to 100,000 CFU/mL)). For the same compound, the “P. vulgaris growth grade, 3 day” value ([5]; 2.5% weight/volume) was 4 (1000 to 10,000 colonies countable (thus 10,000 CFU/mL to 100,000 CFU/mL)), the “P. vulgaris growth grade, 13 day” value ([5]; 2.5% weight/volume) was 4 (1000 to 10,000 colonies countable (thus 10,000 CFU/mL to 100,000 CFU/mL)) and the “P. vulgaris growth grade, 30 day” value ([5]; 2.5% weight/volume) was 4 (1000 to 10,000 colonies countable (thus 10,000 CFU/mL to 100,000 CFU/mL)). The “P. vulgaris growth grade, 3 day” value ([5]; 5.0% weight/volume) was 4 (1000 to 10,000 colonies countable (thus 10,000 CFU/mL to 100,000 CFU/mL)), the “P. vulgaris growth grade, 13 day” value ([5]; 5.0% weight/volume) was 4 (1000 to 10,000 colonies countable (thus 10,000 CFU/mL to 100,000 CFU/mL)) and the “P. vulgaris growth grade, 30 day” value ([5]; 5.0% weight/volume) was 4 (1000 to 10,000 colonies countable (thus 10,000 CFU/mL to 100,000 CFU/mL)).
